Measured values from patent US7235534B2, “Antisense strategy to modulate estrogen receptor response (ER α and/or ER β )” (Institut de Cardiologie de Montreal, priority 2001, dated 2007).

Columns and labels:
[1] = system: p42/44 MAPK; assay: Western blot of p42/44 MAPK phosphorylation in PSMC; type: cell-based, porcine
Method: Confluent PAEC and PSMC were starved for 7 hours in DMEM and antibiotics. Culture medium was removed, and cells were rinsed twice with ice-cold DMEM. PSMC were incubated on ice in DMEM with or without 17βE (10^−8M) for 30 min, incubated at 37° C. for 5, 10, 15 and 30 min, then brought back on ice. Cell were then rinsed with cold DMEM, incubated on ice in DMEM, bovine serum albumin (1 mg/ml), PDGF-BB (10 ng/ml) for 30 min, incubated at 37° C. for 5 min, and then brought back on ice. PAEC were incubated on ice in DMEM with or without 17βE (10^−7M) for 30 min, then incubated at 37° C. for 5, 10, 15 and 30 min and brought back on ice. […] Total proteins were prepared by the addition of 500 μl of lysis buffer containing phenylmethylsulfonyl fluoride 1 mM, leupeptin 10 μg/ml, aprotinin 30 μg/ml, and NaVO3 1 mM (Sigma). Plates were incubated at 4° C. for 30 min and scraped, and the protein concentration was determined with a Bio-Rad protein kit (Bio-Rad, Hercules, Calif.). Same protein quantity for each cell type and condition were dissolved in Laemmli's buffer, boiled for 5 min in reducing conditions, separated by a 10% gradient SDS-PAGE (Protean II kit; Bio-Rad), and transblotted onto a 0.45-μm polyvinylidene difluoride membranes (Millipore Corp., Bedford, Mass.). The membranes were blocked in 5% Blotto-TTBS (5% nonfat dry milk; Bio-Rad), 0.05% Tween 20, 0.15 M NaCl, 25 mM Tris-HCl, pH 7.5) for 1 h at room temperature with gentle agitation and incubated overnight at 4° C. in 0.5% Blotto-TTBS with the addition of an anti-phospho p42/44 MAPK or an anti-phospho p38 MAPK rabbit polyclonal antiserums (α-pp42/44; dilution of 1:10 000, and α-pp38; dilution 1:5000, New England BioLabs, Beverly, Mass.). Membranes were washed with TTBS, and incubated at room temperature with an anti-rabbit IgG antibody coupled to horseradish peroxidase (dilution 1:10 000–1:20 000, Santa Cruz Biotechnology, Santa Cruz, Calif.) in 0.5% Blotto-TTBS for 30 min. […] Kaleidoscope molecular weight and SDS-plyacrylamide gel electrophoresis broad range marker proteins (Bio-Rad) were used as standards for SDS-plyacrylamide gel electrophoresis. Digital image densitometry (PDI Bioscience, Aurora, ON) was performed on x-ray film to determine relative percentages of p42/44 and p38 MAPK phosphorylation.
Confluent PAEC and PSMC were preteated with or without antisense sequences as described above for Western Blot analysis. Cells were rinsed twice with ice-cold DMEM. PSMC and PAEC were stimulated with or without 17βE (10^−8 mol/L) as previously described (Geraldes P). […] Same quantity of protein was separated by a 10% gradient SDS-PAGE (Protean II kit; Bio-Rad), and transblotted onto a 0.45-μm polyvinylidene difluoride membranes (Millipore Corp.). […]

[2] = local delivery upon porcine coronary angioplasty; cited from earlier work

C[C@]12CC[C@@H]3c4ccc(O)cc4CC[C@H]3[C@@H]1CC[C@@H]2O [17βE, 17-beta-estradiol]
time of maximum inhibition of PDGF-BB-induced p42/44 MAPK phosphorylation ([1]; 17βE 10^−8M pretreatment, PDGF-BB 5 minutes): 30 min | reversal of PDGF-BB-increased p42/44 MAPK phosphorylation ([1]; 17βE 10^−8 mol/L 30 minutes, Example 2): reversed | reduction of PDGF-BB induced phosphorylation of p42/44 MAPK ([1]; 17βE for 30 min): 100% | change in basal phosphorylation of p42/44 MAPK ([1]; substance alone, data not shown): did not observe any change | reduction of the degree of restenosis [2]: up to 50%
